From ChEMBL document CHEMBL5257112, “Discovery of 4-oxo-4,5-dihydropyrazolo[1,5-a]quinoxaline-7-carboxamide derivatives as PI3Kα inhibitors via virtual screening and docking-based structure optimization” (Bioorg Med Chem, 2023)

Tests used:
[1] = target: Phosphatidylinositol 4,5-bisphosphate 3-kinase catalytic subunit alpha isoform (Homo sapiens, UniProt P42336); assay: Inhibition of PI3Kalpha (unknown origin) using PIP2:PS as substrate preincubated for 1 hr followed by ATP and substate addition and measured after 1 hr by ADP-glo reagent based assay
Chain of Phosphatidylinositol 4,5-bisphosphate 3-kinase catalytic subunit alpha isoform (P42336 whole entry, canonical isoform): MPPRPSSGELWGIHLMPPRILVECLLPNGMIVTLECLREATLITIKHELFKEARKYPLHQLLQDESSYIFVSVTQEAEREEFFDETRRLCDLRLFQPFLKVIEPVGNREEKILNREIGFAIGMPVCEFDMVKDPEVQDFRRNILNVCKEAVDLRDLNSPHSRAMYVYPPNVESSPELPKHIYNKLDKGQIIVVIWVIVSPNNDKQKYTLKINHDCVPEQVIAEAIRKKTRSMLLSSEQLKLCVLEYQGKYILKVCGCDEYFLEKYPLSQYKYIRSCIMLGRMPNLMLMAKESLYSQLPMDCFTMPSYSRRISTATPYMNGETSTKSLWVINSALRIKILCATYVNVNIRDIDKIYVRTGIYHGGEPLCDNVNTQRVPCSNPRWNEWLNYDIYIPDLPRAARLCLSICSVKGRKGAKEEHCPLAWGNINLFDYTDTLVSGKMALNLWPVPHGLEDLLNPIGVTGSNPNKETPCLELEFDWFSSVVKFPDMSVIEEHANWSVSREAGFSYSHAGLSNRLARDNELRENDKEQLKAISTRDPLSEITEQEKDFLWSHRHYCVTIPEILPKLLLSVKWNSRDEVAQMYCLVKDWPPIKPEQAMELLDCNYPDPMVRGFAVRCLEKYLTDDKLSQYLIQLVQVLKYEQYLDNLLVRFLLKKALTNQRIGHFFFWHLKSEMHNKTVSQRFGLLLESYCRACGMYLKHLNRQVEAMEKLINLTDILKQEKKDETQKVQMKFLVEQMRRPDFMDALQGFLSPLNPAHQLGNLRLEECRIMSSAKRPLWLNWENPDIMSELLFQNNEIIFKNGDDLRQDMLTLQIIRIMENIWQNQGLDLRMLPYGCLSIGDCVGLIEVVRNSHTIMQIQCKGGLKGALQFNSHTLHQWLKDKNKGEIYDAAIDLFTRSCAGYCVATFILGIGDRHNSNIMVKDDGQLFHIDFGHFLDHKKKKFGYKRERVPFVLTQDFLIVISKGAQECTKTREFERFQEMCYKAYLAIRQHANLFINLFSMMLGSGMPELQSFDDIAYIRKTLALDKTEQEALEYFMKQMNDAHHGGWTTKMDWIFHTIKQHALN

[2] = target: T1, Phosphatidylinositol 4,5-bisphosphate 3-kinase catalytic subunit delta isoform (Homo sapiens, UniProt O00329); assay: Inhibition of PI3Kdelta (unknown origin) using PIP2:PS as substrate preincubated for 1 hr followed by ATP and substate addition and measured after 1 hr by ADP-glo reagent based assay
T1 sequence (O00329 whole entry): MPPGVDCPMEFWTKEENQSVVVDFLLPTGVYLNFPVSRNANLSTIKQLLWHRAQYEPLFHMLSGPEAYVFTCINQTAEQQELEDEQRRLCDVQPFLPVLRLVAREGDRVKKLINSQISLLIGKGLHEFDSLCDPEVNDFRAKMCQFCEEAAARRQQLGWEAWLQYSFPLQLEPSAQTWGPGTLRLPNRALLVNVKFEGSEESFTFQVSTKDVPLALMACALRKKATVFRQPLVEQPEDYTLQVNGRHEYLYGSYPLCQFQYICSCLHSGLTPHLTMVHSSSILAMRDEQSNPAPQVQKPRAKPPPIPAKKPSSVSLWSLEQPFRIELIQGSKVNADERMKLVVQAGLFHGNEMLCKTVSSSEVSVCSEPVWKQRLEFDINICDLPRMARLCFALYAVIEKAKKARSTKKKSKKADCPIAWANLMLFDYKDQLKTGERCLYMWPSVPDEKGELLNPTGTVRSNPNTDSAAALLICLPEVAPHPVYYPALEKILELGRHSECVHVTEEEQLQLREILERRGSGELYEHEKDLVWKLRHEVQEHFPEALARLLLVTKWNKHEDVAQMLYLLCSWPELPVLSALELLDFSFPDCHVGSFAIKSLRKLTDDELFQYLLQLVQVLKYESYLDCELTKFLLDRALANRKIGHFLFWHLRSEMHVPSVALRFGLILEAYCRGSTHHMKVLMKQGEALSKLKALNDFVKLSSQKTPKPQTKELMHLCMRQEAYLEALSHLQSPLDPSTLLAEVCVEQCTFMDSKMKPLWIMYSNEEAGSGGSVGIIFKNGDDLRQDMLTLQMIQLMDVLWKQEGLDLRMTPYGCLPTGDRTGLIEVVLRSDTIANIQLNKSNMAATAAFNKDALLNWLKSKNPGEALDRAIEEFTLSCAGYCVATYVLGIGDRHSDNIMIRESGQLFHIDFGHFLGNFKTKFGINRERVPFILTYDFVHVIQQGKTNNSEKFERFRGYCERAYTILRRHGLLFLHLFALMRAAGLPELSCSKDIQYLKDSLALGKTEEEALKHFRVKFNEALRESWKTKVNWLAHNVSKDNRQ

[3] = target: Phosphatidylinositol 4,5-bisphosphate 3-kinase catalytic subunit beta isoform (Homo sapiens, UniProt P42338); assay: Inhibition of PI3Kbeta (unknown origin) using PIP2:PS as substrate preincubated for 1 hr followed by ATP and substate addition and measured after 1 hr by ADP-glo reagent based assay
Chain of Phosphatidylinositol 4,5-bisphosphate 3-kinase catalytic subunit beta isoform (P42338 whole entry, canonical isoform): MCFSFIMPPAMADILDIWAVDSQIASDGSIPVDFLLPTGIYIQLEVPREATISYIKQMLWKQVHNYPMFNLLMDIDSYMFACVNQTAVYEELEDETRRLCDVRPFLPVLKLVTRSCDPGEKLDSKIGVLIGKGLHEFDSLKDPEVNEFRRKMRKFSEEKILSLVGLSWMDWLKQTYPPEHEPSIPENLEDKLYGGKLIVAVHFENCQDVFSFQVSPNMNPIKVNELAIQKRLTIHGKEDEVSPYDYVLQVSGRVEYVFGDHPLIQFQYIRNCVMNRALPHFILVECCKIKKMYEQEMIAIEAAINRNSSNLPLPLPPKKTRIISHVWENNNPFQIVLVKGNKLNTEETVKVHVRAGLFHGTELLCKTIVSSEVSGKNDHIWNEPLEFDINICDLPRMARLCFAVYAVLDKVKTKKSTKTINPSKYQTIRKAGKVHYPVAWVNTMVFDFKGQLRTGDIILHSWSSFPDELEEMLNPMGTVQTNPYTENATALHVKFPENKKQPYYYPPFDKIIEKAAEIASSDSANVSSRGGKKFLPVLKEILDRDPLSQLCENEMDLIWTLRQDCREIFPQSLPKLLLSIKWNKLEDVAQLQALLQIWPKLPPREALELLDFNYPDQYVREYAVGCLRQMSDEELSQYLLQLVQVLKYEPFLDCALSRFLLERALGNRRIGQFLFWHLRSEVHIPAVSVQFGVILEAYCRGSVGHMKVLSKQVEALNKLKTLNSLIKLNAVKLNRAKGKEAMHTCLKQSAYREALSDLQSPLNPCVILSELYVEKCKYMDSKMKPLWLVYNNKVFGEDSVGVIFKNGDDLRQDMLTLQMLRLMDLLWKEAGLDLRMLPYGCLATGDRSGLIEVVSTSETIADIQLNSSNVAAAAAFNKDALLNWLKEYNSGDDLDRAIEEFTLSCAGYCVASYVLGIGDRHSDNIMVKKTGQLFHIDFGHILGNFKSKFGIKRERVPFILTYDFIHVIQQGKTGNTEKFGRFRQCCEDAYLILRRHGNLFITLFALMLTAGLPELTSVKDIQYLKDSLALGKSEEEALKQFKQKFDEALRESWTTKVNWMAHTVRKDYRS

[4] = target: Phosphatidylinositol 4,5-bisphosphate 3-kinase catalytic subunit gamma isoform (Homo sapiens, UniProt P48736); assay: Inhibition of PI3Kgamma (unknown origin) using PIP2:PS as substrate preincubated for 1 hr followed by ATP and substate addition and measured after 1 hr by ADP-glo reagent based assay
Chain of Phosphatidylinositol 4,5-bisphosphate 3-kinase catalytic subunit gamma isoform (P48736 whole entry, canonical isoform): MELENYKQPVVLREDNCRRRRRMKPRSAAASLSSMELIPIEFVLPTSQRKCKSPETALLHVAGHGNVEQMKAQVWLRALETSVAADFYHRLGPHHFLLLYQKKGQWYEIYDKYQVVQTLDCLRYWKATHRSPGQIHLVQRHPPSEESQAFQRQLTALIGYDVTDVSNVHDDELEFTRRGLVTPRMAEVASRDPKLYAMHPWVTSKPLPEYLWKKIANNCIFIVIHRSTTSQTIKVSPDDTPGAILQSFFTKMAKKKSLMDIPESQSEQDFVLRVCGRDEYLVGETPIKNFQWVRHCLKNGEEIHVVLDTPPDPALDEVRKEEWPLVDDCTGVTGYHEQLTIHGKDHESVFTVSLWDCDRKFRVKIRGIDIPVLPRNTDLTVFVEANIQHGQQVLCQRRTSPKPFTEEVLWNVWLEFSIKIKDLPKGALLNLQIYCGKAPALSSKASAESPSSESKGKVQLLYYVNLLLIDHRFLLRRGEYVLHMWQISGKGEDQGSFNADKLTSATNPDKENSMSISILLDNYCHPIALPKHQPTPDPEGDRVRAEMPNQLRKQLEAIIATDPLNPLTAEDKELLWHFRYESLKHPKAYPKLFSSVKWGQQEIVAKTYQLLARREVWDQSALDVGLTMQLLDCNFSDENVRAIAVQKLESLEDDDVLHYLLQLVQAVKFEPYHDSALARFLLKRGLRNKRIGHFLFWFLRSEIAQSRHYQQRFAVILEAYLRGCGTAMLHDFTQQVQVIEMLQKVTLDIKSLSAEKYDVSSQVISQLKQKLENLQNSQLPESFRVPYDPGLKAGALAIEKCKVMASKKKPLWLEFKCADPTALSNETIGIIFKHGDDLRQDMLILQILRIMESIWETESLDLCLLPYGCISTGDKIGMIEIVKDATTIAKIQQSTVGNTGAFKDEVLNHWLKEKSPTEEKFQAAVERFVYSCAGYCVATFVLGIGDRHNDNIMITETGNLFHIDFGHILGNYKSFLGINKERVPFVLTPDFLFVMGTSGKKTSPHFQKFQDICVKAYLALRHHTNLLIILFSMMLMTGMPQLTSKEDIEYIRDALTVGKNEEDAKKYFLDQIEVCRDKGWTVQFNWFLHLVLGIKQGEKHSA

[5] = system: Kasumi 1; assay: Antiproliferative activity against human Kasumi 1 cells assessed as cell growth inhibition incubated for 72 hrs by MTT assay; type: functional, cell-based; details: Kasumi 1, 72 h
[6] = system: T47D; assay: Antiproliferative activity against human T47D cells expressing PIK3CA mutant assessed as cell growth inhibition incubated for 72 hrs by MTT assay; type: functional, cell-based
[7] = Half life in mouse at 5 mg/kg, po measured after 24 hrs by LC/MS/MS analysis; type: ADME, organism-based; details: in vivo
[8] = Half life in mouse at 1 mg/kg, iv measured after 24 hrs by LC/MS/MS analysis; type: ADME, organism-based; details: in vivo
[9] = Cmax in mouse at 5 mg/kg, po measured after 24 hrs by LC/MS/MS analysis; type: ADME, organism-based; set-up: time 24 hrs, dose 5 mg/kg, route po; details: in vivo
[10] = Cmax in mouse at 1 mg/kg, iv measured after 24 hrs by LC/MS/MS analysis; type: ADME, organism-based; set-up: time 24 hrs, dose 1 mg/kg, route iv; details: in vivo
[11] = AUC(0 to t) in mouse at 5 mg/kg, po measured after 24 hrs by LC/MS/MS analysis; type: ADME, organism-based; set-up: dose 5 mg/kg, time 24 hrs, route po; details: in vivo
[12] = AUC(0 to t) in mouse at 1 mg/kg, iv measured after 24 hrs by LC/MS/MS analysis; type: ADME, organism-based; set-up: dose 1 mg/kg, time 24 hrs, route iv; details: in vivo
[13] = Volume of distribution in mouse at 5 mg/kg, po measured after 24 hrs by LC/MS/MS analysis; type: ADME, organism-based; details: in vivo
[14] = Volume of distribution in mouse at 1 mg/kg, iv measured after 24 hrs by LC/MS/MS analysis; type: ADME, organism-based; details: in vivo
[15] = Clearance in mouse at 5 mg/kg, po measured after 24 hrs by LC/MS/MS analysis; type: ADME, organism-based; details: in vivo
[16] = Clearance in mouse at 1 mg/kg, iv measured after 24 hrs by LC/MS/MS analysis; type: ADME, organism-based; details: in vivo
[17] = Oral bioavailability in mouse at 5 mg/kg measured after 24 hrs by LC/MS/MS analysis; type: ADME, organism-based; details: in vivo
[18] = Inhibition of PI3K/AKT/mTOR signaling pathway in human T47D cells assessed as reduction in Akt phosphorylation at S473 residue preincubated for 1 hr followed by recombinant human insulin-like growth factor 1 stimulation by Western blot analysis; type: cell-based; details: dose 0.01-10 µM

Compound CCn1c(=O)c2ccnn2c2cc(N)c(C(=O)NCc3cncnc3)cc21 has an IC50 [1] of 0.24 µM, an IC50 [2] of 4.1 µM and an IC50 [3] greater than 10 µM. It also gave an IC50 [4] of 0.83 µM, an IC50 [5] of 1.64 µM and an IC50 [6] of 1.82 µM. The half-life [7] was 4.97 h, the half-life [8] was 2.52 h and the Cmax [9] was 863 ng/mL. It also gave a Cmax [10] of 567 ng/mL, an AUC(0-t) at 24 h [11] of 3290 ng·h/mL and an AUC(0-t) at 24 h [12] of 717 ng·h/mL. The Vd [13] was 6.36 L/kg, the Vd [14] was 3.13 L/kg and the CL/F [15] was 15.7 mL/min/kg. The clearance [16] was 20.5 mL/min/kg, the bioavailability [17] was 91.8% and the inhibition [18] was “Dose-Dependent Effect”.
In the case of CCn1c(=O)c2ccnn2c2cc(N(C)C)c(C(=O)NCc3cccnc3)cc21, the IC50 [1] is reported as greater than 20 µM, the IC50 [2] is reported as greater than 20 µM and the IC50 [3] is reported as 15 µM. It also gave an IC50 [4] greater than 20 µM.
CCn1c(=O)c2nccn2c2ccc(C(=O)NCc3cccnc3)cc21 gave an IC50 [1] greater than 20 µM.
CS(=O)(=O)c1ccc(Cn2c(=O)c3ccnn3c3ccc(C(=O)NCc4cccnc4)cc32)cc1 showed an IC50 [1] greater than 20 µM.
Work on CCn1c(=O)c2cc(C(C)C)nn2c2ccc(C(=O)NCc3cccnc3)cc21 yielded an IC50 [1] greater than 20 µM.
With CNC(=O)c1ccc2c(c1)n(CCCN(C)C1CCCCC1)c(=O)c1ccnn12 the IC50 [1] was 11 µM.
For CCn1c(=O)c2ccnn2c2ccc(C(=O)NCc3cnccn3)cc21, the IC50 [1] was 4.76 µM.
With CCn1c(=O)c2ccnn2c2ccc(C(=O)NCc3cncnc3)cc21 the IC50 [1] was 1.59 µM.
Work on CCn1c(=O)c2ccnn2c2ccc(C(=O)NCc3ccccn3)cc21 yielded an IC50 [1] of 2.86 µM.
In the case of O=C(NCc1cccnc1)c1ccc2c(c1)n(CC1CC1)c(=O)c1ccnn12, the IC50 [1] is reported as 2.65 µM.
Compound CCn1c(=O)c2ccnn2c2cc(NC)c(C(=O)NCc3cccnc3)cc21 has an IC50 [1] greater than 20 µM, an IC50 [2] greater than 20 µM and an IC50 [3] of 4.89 µM. It also gave an IC50 [4] greater than 20 µM.
O=C(NCCN1CCOCC1)c1ccc2c(c1)n(Cc1ccccc1)c(=O)c1ccnn12 showed an IC50 [1] of 10.3 µM.
Compound Cc1nc(NC(=O)N2CCC[C@H]2C(N)=O)sc1-c1ccnc(C(C)(C)C(F)(F)F)c1 [ALPELISIB] has an IC50 [5] of 0.44 µM and an IC50 [6] of 0.1 µM.
For CCn1c(=O)c2ccnn2c2ccc(C(=O)NCc3cccnc3C)cc21, the IC50 [1] was 4.51 µM.
O=C(c1ccc2c(c1)[nH]c(=O)c1ccnn12)N1CCN(C2CCCC2)CC1 showed an IC50 [1] greater than 20 µM.
For CCN1C(=O)N2CCN=C2c2ccc(C(=O)NCc3cccnc3)cc21, the IC50 [1] was greater than 20 µM.
Work on CCn1c(=O)c2ccnn2c2ccc(C(=O)NCCCN3CCOCC3)cc21 yielded an IC50 [1] of 4.18 µM.
CCn1c(=O)c2ccnn2c2ccc(C(=O)NCCN3CCOCC3)cc21 showed an IC50 [1] of 10.9 µM.
In the case of CCn1c(=O)c2cnc(C)n2c2ccc(C(=O)NCc3cccnc3)cc21, the IC50 [1] is reported as 3.63 µM.
With CCCCn1c(=O)c2ccnn2c2ccc(C(=O)NCc3cccnc3)cc21 the IC50 [1] was 2 µM.
For CCn1c(=O)c2ccnn2c2ccc(C(=O)NCc3cnccc3C)cc21, the IC50 [1] was 3.52 µM.
CCn1c(=O)c2ccnn2c2ccc(C(=O)NCc3ccncc3)cc21 gave an IC50 [1] of 2.86 µM.
Compound CCNC(=O)c1ccc2c(c1)n(CC)c(=O)c1ccnn12 has an IC50 [1] of 9.3 µM.
In the case of CN1CCC(N2CCN(C(=O)c3ccc4c(c3)[nH]c(=O)c3ccnn34)CC2)CC1, the IC50 [1] is reported as greater than 20 µM.
CCN1C(=O)[C@H]2CCCN2c2ccc(C(=O)NCc3cccnc3)cc21 gave an IC50 [1] greater than 20 µM.
CCNC(=O)c1ccc2c(c1)n(CCOC)c(=O)c1ccnn12 showed an IC50 [1] of 6.43 µM.
In the case of CCn1c(=O)c2cc(C)nn2c2ccc(C(=O)NCc3cccnc3)cc21, the IC50 [1] is reported as 11.4 µM.
With CCNC(=O)c1ccc2c(c1)n(CCCN(C)C)c(=O)c1ccnn12 the IC50 [1] was 4.26 µM.
CCn1c(=O)c2ccnn2c2ccc(C(=O)NCCc3cccnc3)cc21 showed an IC50 [1] of 13.9 µM.
CC(C)(C)c1ccc(Cn2c(=O)c3ccnn3c3ccc(C(=O)NCc4cccnc4)cc32)cc1 showed an IC50 [1] greater than 20 µM.
Compound O=C(NCc1cccnc1)c1ccc2c(c1)n(Cc1ccc(OC(F)(F)F)cc1)c(=O)c1ccnn12 has an IC50 [1] greater than 20 µM.
In the case of CCN1C(=O)N2CC(C)(C)CN=C2c2ccc(C(=O)NCc3cccnc3)cc21, the IC50 [1] is reported as greater than 20 µM.
Compound CCn1c(=O)c2ccnn2c2cc(N)c(C(=O)NCc3cccnc3)cc21 has an IC50 [1] of 0.87 µM, an IC50 [2] of 5.74 µM and an IC50 [3] of 0.72 µM. The IC50 [4] was 1.4 µM, the IC50 [5] was 4.38 µM and the Cmax [9] was less than 50 ng/mL. The Cmax [10] was less than 50 ng/mL, the AUC(0-t) at 24 h [11] was less than 100 ng·h/mL and the AUC(0-t) at 24 h [12] was less than 100 ng·h/mL.
Compound CCn1c(=O)c2cccn2c2ccc(C(=O)NCc3cccnc3)cc21 has an IC50 [1] greater than 20 µM.
CCNC(=O)c1ccc2c(c1)n(CCN1CCCCC1)c(=O)c1ccnn12 gave an IC50 [1] of 5.25 µM.
CCN1C(=O)N2CCCN=C2c2ccc(C(=O)NCc3cccnc3)cc21 gave an IC50 [1] greater than 20 µM.
CCn1c(=O)c2ccnn2c2cc(NC(C)=O)c(C(=O)NCc3cncnc3)cc21 gave an IC50 [1] greater than 20 µM, an IC50 [2] greater than 20 µM and an IC50 [3] greater than 20 µM. For the same compound, the IC50 [4] was greater than 20 µM.
Work on O=C(NCc1cccnc1)c1ccc2c(c1)n(Cc1ccc(C(F)(F)F)cc1)c(=O)c1ccnn12 yielded an IC50 [1] greater than 20 µM.
With CCn1c(=O)c2ccnn2c2ccc(C(=O)NCc3ccc(C)nc3)cc21 the IC50 [1] was 3.62 µM.
For CCn1c(=O)c2ccnn2c2ccc(C(=O)NCc3cncc(C)c3)cc21, the IC50 [1] was 2.65 µM.
O=C(NCCN1CCOCC1)c1ccc2c(c1)n(Cc1ccc(F)cc1)c(=O)c1ccnn12 gave an IC50 [1] of 9.62 µM.
With CCn1c(=O)c2ccnn2c2ccc(C(=O)N3CCN(c4ccccc4)CC3)cc21 the IC50 [1] was greater than 20 µM.
Compound CCN1C(=O)[C@@H]2CCCN2c2ccc(C(=O)NCc3cccnc3)cc21 has an IC50 [1] greater than 20 µM.
CCn1c(=O)c2ccnn2c2ccc(C(=O)NCc3cccnc3)cc21 showed an IC50 [1] of 3.52 µM.
With CCNC(=O)c1ccc2c(c1)n(Cc1ccccc1)c(=O)c1ccnn12 the IC50 [1] was 3.61 µM.
With CCN1C(=O)C2CCCCN2c2ccc(C(=O)NCc3cccnc3)cc21 (centres undefined) the IC50 [1] was greater than 20 µM.
CCn1c(=O)c2ccnn2c2ccc(C(=O)N3CCN(C)CC3)cc21 gave an IC50 [1] greater than 20 µM.
In the case of Cn1c(=O)c2ccnn2c2ccc(C(=O)NCCN3CCOCC3)cc21, the IC50 [1] is reported as 12.3 µM.
CCn1c(=O)c2ccnn2c2ccc(C(=O)NCc3cnn(C)c3)cc21 gave an IC50 [1] of 5.47 µM.
